Patent US20110015235A1, “NOVEL PHENYLETHYNYL DERIVATIVES OF 8-AZA-BICYCLO[3.2.1]OCTANE AND THEIR USE AS MONOAMINE NEUROT[…]-UPTAKE INHIBITORS” (NeuroSearch A/S, priority 2008, published 2011)
Structures can show the parent of a compound that is named as a salt.

Legend:
Assay type in all cases: biochemical
[1] = system: serotonine (5-HT) reuptake in synaptosomes; experiment: Inhibition of 3H-5-HT reuptake in synaptosomes; settings: read-out: 5-HT-uptake IC50
Method: (§1) Compounds were tested for their ability to inhibit the reuptake of the monoamine neurotransmitters dopamine (DA) noradrenaline (NA) and serotonine (5-HT) in synaptosomes as described in WO 97/16451 (NeuroSearch A/S).
(§2) The test values are given as IC50 (the concentration (μM) of the test substance which inhibits the specific binding of ^3H-DA, ^3H-NA, or ^3H-5-HT by 50%).

[2] = system: noradrenaline (NA) reuptake in synaptosomes; experiment: Inhibition of 3H-NA reuptake in synaptosomes; settings: read-out: NA-uptake IC50
Method: as §1, §2

[3] = system: dopamine (DA) reuptake in synaptosomes; experiment: Inhibition of 3H-DA reuptake in synaptosomes; settings: read-out: DA-uptake IC50
Method: as §1, §2

CN1[C@@H]2CC[C@H]1C[C@H](Oc1ccc(C#Cc3ccccc3)cc1)C2 [Compound C1, exo-8-Methyl-3-(4-phenylethynyl-phenoxy)-8-aza-bicyclo[3.2.1]octane fumaric acid salt] was tested, and the IC50 [1] was 720 nM, the IC50 [2] was 79 nM and the IC50 [3] was 24 nM.
